Source: ChEMBL document CHEMBL5385950, “Terpenoids from the Soft Coral Stereonephthya bellissima” (J Nat Prod, 2024)
The source made the active and inactive calls. The rule behind the calls is not given here.

Organism: Danio rerio
Test: Pro-angiogenesis activity against PTK787 induced vascular injury in Tg(vegfr2: EGFP) zebrafish at 20 uM measured after 24 hrs by fluorescence imaging analysis
Type: functional, organism-based

CC(=O)C1=CCC[C@]23O[C@H]2CC[C@](C)(O)[C@@]13C
Activity: Active
